# Measurements: PubChem BioAssay (NCI)
#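 Briefly, cells in 96-well plates were exposed to five compound concentrations for 48 h, and endpoints were estimated by linear interpolation. GI50: concentration for 50% inhibition of growth. TGI marks complete inhibition of growth.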
# Key:
# Assay in all cases: NCI-60 cell line screen, 48 h
# UACC-257 melanoma = test system: UACC-257 melanoma
# OVCAR-5 ovarian = test system: OVCAR-5 ovarian
# NCI-H460 lung = test system: NCI-H460 lung
# HT29 colon = test system: HT29 colon
# HCC-2998 colon = test system: HCC-2998 colon
# MOLT-4 leukemia = test system: MOLT-4 leukemia
# MDA-MB-435 = test system: MDA-MB-435
# CAKI-1 renal = test system: CAKI-1 renal
# MCF7 breast = test system: MCF7 breast
Compound,TGI (UACC-257 melanoma),TGI (OVCAR-5 ovarian),TGI (NCI-H460 lung),TGI (HT29 colon),TGI (HCC-2998 colon),TGI (MOLT-4 leukemia),TGI (MDA-MB-435),TGI (CAKI-1 renal),TGI (MCF7 breast),GI50 (UACC-257 melanoma),GI50 (MCF7 breast),GI50 (OVCAR-5 ovarian),GI50 (NCI-H460 lung),GI50 (HT29 colon),GI50 (HCC-2998 colon),GI50 (MOLT-4 leukemia),GI50 (CAKI-1 renal)
COc1ccc(NC(=S)NN=C(C)c2cccc(C(C)=NNC(=S)Nc3ccc(OC)cc3)n2)cc1,> 100 µM,> 100 µM,> 100 µM,> 100 µM,> 100 µM,> 100 µM,> 100 µM,> 100 µM,–,–,–,–,–,–,–,–,–
COc1c2cc(C(C)(C)C)cc1CSCc1cc(C(C)(C)C)cc(c1OC)CCCCC2,49.1 µM,> 50 µM,> 50 µM,> 50 µM,> 50 µM,> 50 µM,> 50 µM,–,> 50 µM,–,–,–,–,–,–,–,–
NCCC1(N)CCNCC1,> 100 µM,> 100 µM,> 100 µM,> 100 µM,–,> 100 µM,> 100 µM,> 100 µM,–,–,–,–,–,–,–,–,–
Cc1ccc(-c2cc(-c3ccco3)nc(N)n2)o1,–,> 100 µM,> 100 µM,> 100 µM,–,> 100 µM,–,–,–,–,–,–,–,–,–,–,–
CCOC(=O)c1cc2cc(Cc3ccc4[nH]c(C(=O)OCC)cc4c3)ccc2[nH]1,> 100 µM,> 100 µM,> 100 µM,> 100 µM,> 100 µM,> 100 µM,> 100 µM,34.3 µM,> 100 µM,–,–,–,–,–,–,–,–
N#Cc1c(-c2ccco2)c2c(n(C3OC(CO)C(O)C(O)C3O)c1=S)CCCC2 (configuration not stated),> 100 µM,> 100 µM,> 100 µM,> 100 µM,> 100 µM,> 100 µM,> 100 µM,> 100 µM,> 100 µM,–,–,–,–,–,–,–,–
COc1ccc(-n2c(CCCC(=O)O)nc3c2C(=O)c2ccccc2C3=O)cc1,> 100 µM,> 100 µM,> 100 µM,–,> 100 µM,> 100 µM,78.9 µM,> 100 µM,> 100 µM,–,–,–,–,–,–,–,–
CC1(C)CCc2c(cc3c(c2O)CCC(C)(C)O3)O1,> 100 µM,> 100 µM,> 100 µM,> 100 µM,> 100 µM,> 100 µM,–,> 100 µM,> 100 µM,–,–,–,–,–,–,–,–
C[N+]1(C)CC=C(N2CCOCC2)CC1,> 10 µM,–,> 10 µM,> 10 µM,> 10 µM,> 10 µM,> 10 µM,> 10 µM,> 10 µM,–,–,–,–,–,–,–,–
N#Cc1[nH]c(=O)n(-c2ccc([N+](=O)[O-])cc2)c1N,> 10 µM,> 10 µM,> 10 µM,> 10 µM,> 10 µM,> 10 µM,> 10 µM,–,–,–,–,–,–,–,–,–,–
CCOC(=O)C1(Cc2ccc(C)cc2)Cc2ccc(C)cc2C1=O (configuration not stated),98.2 µM,> 100 µM,82.4 µM,49.1 µM,> 92.7 µM,27.7 µM,12.2 µM,> 100 µM,28.3 µM,–,–,–,–,–,–,–,–
COc1c2nc(CCl)n(C)c(=O)c2c(OC)c2c(=O)n(C)c(CCl)nc12,5.24 µM,7.75 µM,4.66 µM,2.87 µM,2.65 µM,1.54 µM,7.65 µM,2.94 µM,2.36 µM,–,–,–,–,–,–,–,–
CCOC(=O)c1ccc(NC2Oc3cc4c(cc3C(c3cc(OC)c(OC)c(OC)c3)C2C)OCO4)cc1 (configuration not stated),> 100 µM,> 100 µM,> 100 µM,12.9 µM,6.32 µM,11.5 µM,0.448 µM,0.786 µM,> 48.5 µM,–,–,–,–,–,–,–,–
O=C(NCc1cn(Cc2cccc(Oc3ccccc3)c2)nn1)c1cccnc1Nc1ccccc1,86.4 µM,> 100 µM,10.5 µM,11.6 µM,21.8 µM,> 100 µM,–,> 100 µM,> 100 µM,14.2 µM,3.67 µM,5.73 µM,2.85 µM,3.65 µM,3.7 µM,3.74 µM,5.45 µM
Cc1ccc(N=Nc2c(O)c3ccccc3[nH]c2=O)c(S(=O)(=O)N(C)C)c1,> 100 µM,> 100 µM,> 100 µM,> 100 µM,–,–,> 100 µM,> 100 µM,> 100 µM,–,–,–,–,–,–,–,–
C/C(=N\Nc1nc2cc(C)ccc2s1)c1ccccn1,> 100 µM,19.9 µM,52.8 µM,6.69 µM,28.5 µM,–,> 64.5 µM,9.18 µM,–,–,–,–,–,–,–,–,–
COC(=O)C1Cc2c(C)cccc2C1=O (configuration not stated),> 100 µM,> 100 µM,> 100 µM,> 100 µM,> 100 µM,> 100 µM,> 100 µM,> 100 µM,> 100 µM,–,–,–,–,–,–,–,–
CN(NC(=O)c1ccco1)C1=NCCCCN1,> 100 µM,> 100 µM,> 100 µM,> 100 µM,> 100 µM,> 100 µM,> 100 µM,–,> 100 µM,–,–,–,–,–,–,–,–
O=c1c2cc([N+](=O)[O-])ccc2n2n1Cc1ccccc1CC2,> 100 µM,> 100 µM,> 100 µM,> 100 µM,> 100 µM,> 100 µM,> 100 µM,> 100 µM,> 100 µM,–,–,–,–,–,–,–,–
CCOC(=O)C(NCc1ccccc1)(NC(=O)c1ccccc1)C(F)(F)F (configuration not stated),> 100 µM,> 100 µM,–,> 100 µM,> 100 µM,> 100 µM,> 100 µM,> 100 µM,> 100 µM,–,–,–,–,–,–,–,–
CCC1(O)C=CC(=O)C=C1,> 52.5 µM,> 100 µM,> 83.2 µM,> 100 µM,> 100 µM,> 100 µM,> 100 µM,> 100 µM,> 100 µM,–,–,–,–,–,–,–,–
[N-]=N[N+]#I1OC(C(F)(F)F)(C(F)(F)F)c2ccccc21,75.9 µM,28.5 µM,–,35.3 µM,31.8 µM,59.2 µM,34.2 µM,20.9 µM,27.3 µM,–,–,–,–,–,–,–,–
O=C1Nc2ccccc2C(=O)OC(Cc2ccccc2)=Nc2ccccc21,> 100 µM,> 100 µM,> 100 µM,> 100 µM,> 100 µM,> 100 µM,> 100 µM,> 100 µM,> 100 µM,–,–,–,–,–,–,–,–
Nc1c(Br)cc(-c2cc(Br)c(N)c(Br)c2)cc1Br,> 100 µM,> 100 µM,> 100 µM,> 100 µM,> 100 µM,> 100 µM,> 100 µM,> 100 µM,> 100 µM,–,–,–,–,–,–,–,–
